# Data as given in article PMC4997860, “The Heterodimeric ABC Transporter EfrCD Mediates Multidrug Efflux in Enterococcus faecalis” (Antimicrobial Agents and Chemotherapy, 2016).
# Legend:
# Assay in all cases: ATPase modulation in proteoliposomes, malachite green
# Format in all cases: biochemical
# EfrEF [1] = target: T1, EfrEF (Enterococcus faecalis, UniProt Q832J9+Q832K0); conditions: 0.1-200 uM drug; 1 mM ATP, 10 mM MgSO4, pH 7.0, 30°C; bell-shaped curve
# T1 construct: gene EF_2226; full-length heterodimer, N-terminal deca-His tag on first chain cleaved with 3C protease, expressed in L. lactis NZ9000 dlmrA dlmrCD; proteoliposomes
# T1 sequence (Q832K0 entry or part of it): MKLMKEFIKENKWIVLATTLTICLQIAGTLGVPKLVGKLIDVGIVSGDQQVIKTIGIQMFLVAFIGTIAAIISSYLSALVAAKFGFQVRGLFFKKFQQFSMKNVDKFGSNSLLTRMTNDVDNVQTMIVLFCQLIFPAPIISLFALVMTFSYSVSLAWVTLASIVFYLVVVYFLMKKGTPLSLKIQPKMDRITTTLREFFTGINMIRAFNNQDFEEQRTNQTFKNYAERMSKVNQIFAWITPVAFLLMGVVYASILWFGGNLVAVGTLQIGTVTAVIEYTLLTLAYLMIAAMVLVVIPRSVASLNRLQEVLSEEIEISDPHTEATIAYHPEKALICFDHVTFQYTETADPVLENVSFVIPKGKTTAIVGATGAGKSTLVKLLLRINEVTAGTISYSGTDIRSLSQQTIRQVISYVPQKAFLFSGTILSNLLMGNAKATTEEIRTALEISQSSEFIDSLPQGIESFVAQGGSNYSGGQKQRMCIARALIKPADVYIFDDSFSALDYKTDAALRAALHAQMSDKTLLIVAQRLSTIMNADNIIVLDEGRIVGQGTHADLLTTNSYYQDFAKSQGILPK
# T1 sequence (Q832J9 entry or part of it): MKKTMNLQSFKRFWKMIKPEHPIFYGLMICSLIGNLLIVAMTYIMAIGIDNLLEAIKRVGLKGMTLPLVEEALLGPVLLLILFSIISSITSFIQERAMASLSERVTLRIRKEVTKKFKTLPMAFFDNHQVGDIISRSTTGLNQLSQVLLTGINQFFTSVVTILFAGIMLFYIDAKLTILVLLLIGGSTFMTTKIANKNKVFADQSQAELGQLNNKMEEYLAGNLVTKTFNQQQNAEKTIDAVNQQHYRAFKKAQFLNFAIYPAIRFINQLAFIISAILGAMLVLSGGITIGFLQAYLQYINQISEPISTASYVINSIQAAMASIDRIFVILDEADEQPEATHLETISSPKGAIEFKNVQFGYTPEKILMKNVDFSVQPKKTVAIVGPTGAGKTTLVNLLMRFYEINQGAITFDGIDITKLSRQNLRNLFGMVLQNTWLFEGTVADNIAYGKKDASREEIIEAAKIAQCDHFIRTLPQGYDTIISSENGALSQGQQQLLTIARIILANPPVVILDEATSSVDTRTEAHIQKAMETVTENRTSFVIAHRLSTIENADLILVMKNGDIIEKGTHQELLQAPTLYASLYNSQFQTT
# EfrEF [2] = target: T1, EfrEF; conditions: 2.5 uM Hoechst 33342; 1 mM ATP, 10 mM MgSO4, pH 7.0, 30°C; bell-shaped curve
# EfrAB = target: T2, EfrAB (Enterococcus faecalis, UniProt Q82ZX7+Q82ZX8); conditions: 20 uM Hoechst 33342; 1 mM ATP, 10 mM MgSO4, pH 7.0, 30°C; bell-shaped curve
# T2 construct: gene EF_2920; full-length heterodimer, N-terminal deca-His tag on first chain cleaved with 3C protease, expressed in L. lactis NZ9000 dlmrA dlmrCD; proteoliposomes
# T2 sequence (Q82ZX8 entry or part of it): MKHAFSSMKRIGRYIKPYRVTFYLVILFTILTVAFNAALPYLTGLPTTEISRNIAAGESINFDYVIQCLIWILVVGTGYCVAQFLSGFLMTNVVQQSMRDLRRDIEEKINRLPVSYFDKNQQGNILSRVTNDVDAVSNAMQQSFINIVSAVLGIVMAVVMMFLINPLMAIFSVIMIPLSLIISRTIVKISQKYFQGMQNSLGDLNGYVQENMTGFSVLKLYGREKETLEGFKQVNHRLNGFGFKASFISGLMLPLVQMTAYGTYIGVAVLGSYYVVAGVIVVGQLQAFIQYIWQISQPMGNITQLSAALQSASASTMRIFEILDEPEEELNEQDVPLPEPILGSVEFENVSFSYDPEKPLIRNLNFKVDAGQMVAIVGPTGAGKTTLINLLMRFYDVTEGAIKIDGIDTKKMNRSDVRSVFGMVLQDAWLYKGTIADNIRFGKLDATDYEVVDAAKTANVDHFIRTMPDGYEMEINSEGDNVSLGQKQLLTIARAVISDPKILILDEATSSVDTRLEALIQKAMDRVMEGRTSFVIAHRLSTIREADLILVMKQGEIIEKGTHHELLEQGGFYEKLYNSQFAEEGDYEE
# T2 sequence (Q82ZX7 entry or part of it): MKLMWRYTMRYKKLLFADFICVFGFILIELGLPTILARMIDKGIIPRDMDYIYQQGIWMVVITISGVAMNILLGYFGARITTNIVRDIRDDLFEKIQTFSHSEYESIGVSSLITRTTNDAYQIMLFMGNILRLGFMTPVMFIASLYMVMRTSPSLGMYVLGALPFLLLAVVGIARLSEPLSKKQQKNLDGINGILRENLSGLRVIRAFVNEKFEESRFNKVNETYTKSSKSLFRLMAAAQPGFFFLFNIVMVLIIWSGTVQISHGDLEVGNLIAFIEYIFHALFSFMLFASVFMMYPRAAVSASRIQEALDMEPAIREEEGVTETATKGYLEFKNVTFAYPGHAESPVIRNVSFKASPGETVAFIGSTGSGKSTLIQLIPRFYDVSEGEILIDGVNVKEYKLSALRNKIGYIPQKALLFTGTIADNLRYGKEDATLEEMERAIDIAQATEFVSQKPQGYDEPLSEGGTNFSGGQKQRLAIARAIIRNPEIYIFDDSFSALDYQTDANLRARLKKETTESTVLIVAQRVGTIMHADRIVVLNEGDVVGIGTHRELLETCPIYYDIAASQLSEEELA
# EfrCD = target: T3, EfrCD (Enterococcus faecalis, UniProt Q837P4+Q837P5); conditions: 0.1-200 uM drug; 1 mM ATP, 10 mM MgSO4, pH 7.0, 30°C; bell-shaped curve
# T3 construct: gene EF_0789; full-length heterodimer, N-terminal deca-His tag on EfrC cleaved with 3C protease (tag present in cells), expressed in L. lactis NZ9000 dlmrA dlmrCD; proteoliposomes
# T3 sequence (Q837P5 entry or part of it): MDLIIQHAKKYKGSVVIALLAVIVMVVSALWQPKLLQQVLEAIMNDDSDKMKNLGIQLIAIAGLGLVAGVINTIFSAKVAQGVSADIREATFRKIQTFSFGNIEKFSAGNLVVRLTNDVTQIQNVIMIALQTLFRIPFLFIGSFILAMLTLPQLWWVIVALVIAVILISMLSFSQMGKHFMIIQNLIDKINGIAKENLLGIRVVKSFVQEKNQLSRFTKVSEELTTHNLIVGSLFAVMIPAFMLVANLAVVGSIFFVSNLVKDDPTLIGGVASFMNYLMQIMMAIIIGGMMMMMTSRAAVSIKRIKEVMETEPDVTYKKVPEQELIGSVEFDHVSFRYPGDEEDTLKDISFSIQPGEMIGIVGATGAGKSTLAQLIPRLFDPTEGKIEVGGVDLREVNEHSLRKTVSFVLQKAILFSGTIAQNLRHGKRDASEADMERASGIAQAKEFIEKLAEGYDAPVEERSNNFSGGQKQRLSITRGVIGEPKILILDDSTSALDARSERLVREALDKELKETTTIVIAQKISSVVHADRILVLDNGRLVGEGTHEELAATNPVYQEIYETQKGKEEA
# T3 sequence (Q837P4 entry or part of it): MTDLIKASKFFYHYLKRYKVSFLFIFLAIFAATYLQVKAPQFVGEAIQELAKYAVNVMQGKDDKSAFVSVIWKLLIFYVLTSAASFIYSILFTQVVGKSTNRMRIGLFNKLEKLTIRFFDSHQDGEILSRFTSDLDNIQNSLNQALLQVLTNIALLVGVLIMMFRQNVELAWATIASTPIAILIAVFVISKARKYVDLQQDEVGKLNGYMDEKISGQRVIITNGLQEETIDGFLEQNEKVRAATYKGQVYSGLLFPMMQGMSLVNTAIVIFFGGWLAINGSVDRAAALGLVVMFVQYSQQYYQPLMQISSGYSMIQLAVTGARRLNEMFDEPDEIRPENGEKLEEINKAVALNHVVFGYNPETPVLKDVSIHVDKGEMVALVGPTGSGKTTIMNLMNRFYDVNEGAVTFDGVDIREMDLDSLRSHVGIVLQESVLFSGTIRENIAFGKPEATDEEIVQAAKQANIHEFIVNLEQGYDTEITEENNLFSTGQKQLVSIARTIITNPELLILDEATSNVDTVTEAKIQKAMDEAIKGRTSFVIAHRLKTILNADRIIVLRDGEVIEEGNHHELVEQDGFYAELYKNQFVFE
structure (smiles),measurement,setting,value
CC[n+]1c(-c2ccccc2)c2cc(N)ccc2c2ccc(N)cc21 [ethidium],drug-modulated ATPase activity,EfrEF [1],"For ethidium, a bell-shaped curve with a large magnitude was observed for EfrEF"
CCOc1ccc(-c2nc3ccc(-c4nc5ccc(N6CCN(C)CC6)cc5[nH]4)cc3[nH]2)cc1 [Hoechst 33342],maximal ATPase stimulation (basal = 100%),EfrEF [2],130%
same,maximal ATPase stimulation (basal = 100%),EfrAB,165%
COc1cccc2c1C(=O)c1c(O)c3c(c(O)c1C2=O)C[C@@](O)(C(C)=O)C[C@@H]3O[C@H]1C[C@H](N)[C@H](O)[C@H](C)O1 [daunorubicin],drug-modulated ATPase activity,EfrCD,a strong response in the form of a bell-shaped curve was seen for EfrCD
